According to US12297163B2, “Glycerol derivative, preparation method therefor, and immunomodulator comprising same as effective ingredient” (ENZYCHEM LIFESCIENCES CORPORATION, priority 2018, dated 2025):

Experiments:
STAT3 [1] = experiment: IL-6-induced STAT3 activity, SEAP expression in HEK-Blue IL-6 cells; assay type: cell-based; details: for STAT3 activity SEAP expression(%) (average ± deviation): negative control = 100
Procedure: Two experiments were conducted as a method of confirming STAT3 activity. First, HEK-Blue™ IL-6 cells were used to confirm the degree of activity by STAT3-induced SEAP (secreted embryonic alkaline phosphatase) expression. Second, this is a method to check the degree of STAT3 activity by injecting the pGL4.47 [luc2P/SIE/Hygro] vector containing the sis-inducible element that binds to STAT3 into RAW264.7 cells. Table 4 below confirmed the STAT3 activity inhibitory ability of the derivative compound of the present invention using the first method.
In DMEM (Hyclone, Thermo Scientific) medium to which 10% Fetal Bovine Serum was added, HEK-Blue™ IL-6 cells were cultured at a concentration of 1×10^5 cells/ml, and the cells were maintained in a 5% CO2 humidified incubator at 37° C., and cultured. The cultured HEK-Blue™ IL-6 cells were inoculated by 1×10^5 cells/ml, and treat with a glycerol derivative compounds of the type shown in Table 3 below in the culture solution for 1 hour, and then IL-6 (5 ng/ml) was further incubated for 24 hours for STAT3 activity. Thereafter, the culture supernatant was collected for each well and centrifuged (at 3000 rpm, 5 minutes) to recover the supernatant. The SEAP expression level in the recovered supernatant was mixed with Quanti blue reagent and the supernatant at a ratio of 1:10 and left at 37° C. for about 30 minutes. Then, the SEAP concentration was confirmed at 650 nm wavelength using a spectrophotometer, and the results thereof are shown in Table 4 below.

HL-60 cells = experiment: Migration of HL-60 cell line using Transwell; assay type: cell-based, human
Procedure: Then, the culture solution was treated with a glycerol derivative compounds of the type shown in Table 7 below for 1 hour and then was treated with Gemcitabine (2 μg/ml) of a cell stimulator, and subsequent further incubation was conducted for 24 hours. Thereafter 1.5 ml of the culture supernatant was collected for each well and centrifuged (at 3000 rpm, 5 minutes) to recover the supernatant. […] The day before Transmigration assay was carried out, a 1× Lamin I solution was treated in the upper Invasion Chamber and coated. […] Thereafter the upper chamber was removed, and the cells were attached to the bottom of the lower chamber by a centrifuge, and then the supernatant was removed. Cell dissociation/Calcein-AM solution was added and reacted for 1 hour. Then, the value obtained using a fluorescence spectroscopy was calculated by converting the number of cells.

IL-6 = experiment: LPS-induced IL-6 secretion in RAW264.7 cells (ELISA); assay type: cell-based, mouse; details: for IL-6 concentration (average ± deviation): then LPS 1 μg/ml, 24 hours
Procedure: In DMEM (Hyclone, Thermo Scientific) medium to which 10% Fetal Bovine Serum was added, RAW264.7 cells, a mouse macrophage family, were suspended at a concentration of 1×10^5 cells/ml, and the cells were maintained in a 5% CO2 humidified incubator at 37° C., and cultured. The cultured RAW264.7 cells were inoculated into a 48 well plate by 5×10^4 cells/ml and stabilized for 15 hours. Then, the culture solution was treated with a glycerol derivative compounds of the type shown in Table 2 and 3 below for 1 hour and then was treated with 1 μg/ml of Lipopolysaccaride (LPS) of a cell stimulator, and subsequent further incubation was conducted for 24 hours. Thereafter 0.5 ml of the culture supernatant was collected for each well and centrifuged (at 3000 rpm, 5 minutes) to recover the supernatant. The IL-6 level in the recovered supernatant was measured according to the manual provided by the Mouse IL-6 ELISA set (BD Biosciences). The day before ELISA was carried out, the IL-6 capture antibody was diluted in phosphate buffered saline, coated on a microwell, and then stored at 4° C. overnight. Each well was washed three times with a washing buffer solution and then blocked with 2% Bovine Serum Albumin (BSA) for 1 hour at room temperature. After washing with buffer solution three times, 100 μl of sample was dispensed into each well and left at room temperature for 2 hours. Detection antibody which was washed 3 times with washing buffer solution and diluted was dispensed into each well and allowed to react at room temperature for 1 hour and left at room temperature for 1 hour. Thereafter, the secondary HRP conjugated antibody was reacted at room temperature for 30 minutes, washed three times with a washing buffer solution, and treated with 50 μl of stop solution for each well, and then the optical density was measured at 450 nm with an ELISA microplate leader.

STAT3 [2] = experiment: STAT3 activity, pGL4.47 [luc2P/SIE/Hygro] luciferase reporter in RAW264.7 cells; assay type: cell-based, mouse
Procedure: Thereafter, the culture supernatant was removed for each well, and the remaining cells were lysed with a cell lysis buffer, and then cell lysate was recovered. 90 μl of luciferase reagent was mixed with 10 μl of the recovered cell lysate, and the degree of fluorescence was confirmed using a luminometer.

CXCL8 (IL-8) = CXCL8 (IL-8) expression in Gemcitabine-stimulated THP-1 cells (ELISA); assay type: cell-based, human
Procedure: Thereafter 1.5 ml of the culture supernatant was collected for each well and centrifuged (at 3000 rpm, 5 minutes) to recover the supernatant.

STAT6 = experiment: IL-4-induced STAT6 activity, pGL4-STAT6 luciferase reporter in A549 cells; assay type: cell-based
Procedure: In DMEM (Dulbecco Modified Eagle Medium, Hyclone, Thermo Scientific) medium to which 10% Fetal Bovine Serum was added, A549 cells were subcultured at a concentration of 1×10^5 cells/ml, and the cells were maintained in a 5% CO2 humidified incubator at 37° C., and cultured. The cultured A549 cells were inoculated into a 48 well plate by 1×10^5 cells/ml and stabilized for 18 hours. Thereafter, pGL4-STAT6 reporter vector containing a STAT6 binding promoter portion was mixed with Attractene to induce complex formation at room temperature for 15 minutes. This complex was treated with the cells and then further incubated for 24 hours. Thereafter, the culture solution was treated with a glycerol derivative compounds of the type shown in Table 8 and Table 9 below for 1 hour in the culture solution, and then IL-4 (2 ng/ml or 10 ng/ml) was further incubated for 20 hours for STAT6 activity. Thereafter, the culture supernatant was removed for each well, and the remaining cells were lysed with a cell lysis buffer, and then cell lysate was recovered. 90 μl of luciferase reagent was mixed with 10 μl of the recovered cell lysate, and the degree of fluorescence was confirmed using a luminometer.

IL-4 = experiment: PKC activator-induced IL-4 secretion in EL-4 cells (ELISA); assay type: cell-based, mouse; details: Table 11, sample 100 μg/ml for 2 hours, then PKC activator, 18 hours
Procedure: Thereafter 0.5 ml of the culture supernatant was collected for each well and centrifuged (at 3000 rpm, 5 minutes) to recover the supernatant. […] Thereafter, the secondary HRP conjugated antibody was reacted at room temperature for 30 minutes, washed three times with a washing buffer solution, and treated with 50 μl of stop solution for each well, and then the optical density was measured at 450 nm with an ELISA microplate leader.

IL-6: IL-6 cytokine used to induce STAT3 activity
STAT3 activity SEAP expression(%) (average ± deviation) (STAT3 [1]; IL-6 5 ng/ml alone): 228.8 ± 17.0%

Nc1ccn([C@@H]2O[C@H](CO)[C@@H](O)C2(F)F)c(=O)n1 [Gemcitabine]
increase of neutrophil cell migration compared to the negative control group (HL-60 cells; Gemcitabine-treated THP-1 cells): increased by about twice

CCCCC/C=C\C/C=C\CCCCCCCC(=O)OC(COC(C)=O)COC(=O)CCCCCCCCCCCCCCC (stereo not drawn) [EC-18, 1-palmitoyl-2-linoleoyl-3-acetylglycerol]
decrease of IL-6 expression/secretion compared to the LPS-treated group (IL-6; LPS-stimulated): about 30%
IL-6 concentration (average ± deviation) (IL-6; Table 2, sample 100 μg/ml for 1 hour): 0.194 ± 0.011 ng/mL
IL-6 concentration (average ± deviation) (IL-6; Table 3, sample 100 μg/ml for 1 hour): 1.159 ± 0.036 ng/mL
decrease of STAT3 activity compared to the IL-6-treated group (STAT3 [1]): about 25%
STAT3 activity SEAP expression(%) (average ± deviation) (STAT3 [1]; sample 100 μg/ml for 1 hour, then IL-6 5 ng/ml, 24 hours): 173.0 ± 7.9%
decrease of STAT3 activity (STAT3 [2]; LPS-treated): about 50%
STAT3 activity_Luciferase activity (average ± deviation) (STAT3 [2]; sample 100 μg/ml for 1 hour, then LPS 1 μg/ml, 18 hours, negative control = 100.00): 393.64 ± 46.12
reduction of CXCL8 expression (CXCL8 (IL-8)): about 20%
reduction of HL-60 cell migration, result in words (HL-60 cells; Transwell, comparison with negative control group or EC-18 (PLAG)): reduced to a degree similar to that of the negative control group
reduction of STAT6 activity (STAT6; IL-4-treated): about 50%
STAT6 activity_Luciferase activity (average ± deviation) (STAT6; Table 9, sample 100 μg/ml for 1 hour, then IL-4 10 ng/ml, 20 hours): 1281.5 ± 26.1
IL-4 concentration (average ± deviation) (IL-4): 189.8 ± 38.5 pg/µL

B1: IL-4: IL-4 used to induce STAT6 activity in A549 cells (protein, UniProt P05112 25-153, looked up)
Interleukin-4: HKCDITLQEIIKTLNSLTEQKTLCTELTVTDIFAASKNTTEKETFCRAATVLRQFYSHHEKDTRCLGATAQQFHRHKQLIRFLKRLDRNLWGLAGLNSCPVKEANQSTLENFLERLKTIMREKYSKCSS
STAT6 activity_Luciferase activity (average ± deviation) (STAT6; Table 9, IL-4 alone, concentration printed 10): 2134.5 ± 17.6
